Measured values as given in patent US10716788B2, “Methods for treating MS using pyrimidine and pyridine compounds with BTK inhibitory activity” (Merck Patent GmbH, priority 2015, dated 2020).

Key:
[1] = system: PLP139-151 induced EAE in female SJL mice; assay: PLP139-151 induced EAE in SJL mice (relapsing remitting mouse model of MS); format: in vivo; conditions: for relapse activity / relapses: FIG. 2 / FIG. 10
RA models = conditions: 3 mg/kg PO; cited from earlier work
[2] = prophylactic treatment from Day 0 post-induction, 0.3, 1.0, 3 mg/kg PO QD, FIG. 1 / FIG. 9
[3] = prophylactic treatment from Day 0 post-induction, 0.3, 1.0, 3 mg/kg PO QD
[4] = therapeutic dosing from Day 9 post-induction, 1.0, 3, 10 mg/kg PO QD, FIG. 15

C=CC(=O)N1CCC(CNc2ncnc(N)c2-c2ccc(Oc3ccccc3)cc2)CC1 [Compound (1), 1-(4-(((6-amino-5-(4-phenoxyphenyl)pyrimidin-4-yl)amino)methyl)piperidin-1-yl)prop-2-en-1-one]
disease onset ([1]; prophylactic treatment from Day 0 post-induction, 0.3, 1.0, 3 mg/kg PO QD, FIG. 1): delayed onset
disease severity (clinical score) [1, 2]: reduced disease severity
relapse activity / relapses [1, 3]: reduced relapse activity
disease severity (clinical score) ([1]; therapeutic treatment, start at remission, 1, 3, 10 mg/kg PO QD, FIG. 3): reduced disease severity
relapse activity ([1]; therapeutic treatment, start at remission, 1, 3, 10 mg/kg PO QD, FIG. 4): reduced relapse activity

C=CC(=O)N1CCC(F)(CNc2ncnc(N)c2-c2ccc(Oc3ccccc3)cc2)CC1 [Compound (2), 1-(4-(((6-amino-5-(4-phenoxyphenyl)pyrimidin-4-yl)amino)methyl)-4-fluoropiperidin-1-yl)prop-2-en-1-one]
efficacy on RA models (RA models): efficacious
number of relapses ([1]; dosing from Day 7 post-induction (before onset of EAE), 1.0 and 10 mg/kg PO QD, FIG. 21): reduced the number of relapses
disease severity (clinical score) [1, 2]: significantly decreases disease severity
relapse activity / relapses [1, 3]: decreased
incidence of disease ([1]; prophylactic treatment from Day 0 post-induction, 0.3, 1.0, 3 mg/kg PO QD, FIG. 10): decreased incidence of disease
disease severity (clinical score) ([1]; semi-therapeutic dosing from Day 7 post-induction (before onset of EAE), 1.0 and 10 mg/kg PO QD, FIG. 20): reduced disease severity
disease severity (clinical score) ([1]; therapeutic dosing from Day 9 post-induction, 1.0, 3, 10 mg/kg PO QD, FIG. 14): reduced disease severity
relapses [1, 4]: decreased relapses
time to first relapse [1, 4]: prolonged time to first relapse
disease severity (clinical score) ([1]; therapeutic dosing from Day 17 post-induction, 1.0 and 10 mg/kg PO QD, FIG. 18): reduced disease severity
number of relapses ([1]; therapeutic dosing from Day 17 post-induction, 1.0 and 10 mg/kg PO QD, FIG. 19): reduced the number of relapses
